Reference: ChEMBL document CHEMBL1147717, “Development of activity-based probes for trypsin-family serine proteases” (Bioorg Med Chem Lett, 2006)

What was measured:
Trypsin = Trypsin (Homo sapiens, UniProt P07477+P07478+P35030); assay: Inhibition of trypsin; type: protein assay
Plasminogen = Plasminogen (Homo sapiens, UniProt P00747); assay: Inhibition of plasmin; settings: read-out: Ki app
Prothrombin = Prothrombin (Homo sapiens, UniProt P00734); assay: Inhibition of thrombin; settings: read-out: Ki app
Tryptase beta-1 = Tryptase beta-1 (Homo sapiens, UniProt Q15661); assay: Inhibition of beta tryptase; settings: read-out: Ki app
Tryptase beta-1, sequence (Q15661 whole entry): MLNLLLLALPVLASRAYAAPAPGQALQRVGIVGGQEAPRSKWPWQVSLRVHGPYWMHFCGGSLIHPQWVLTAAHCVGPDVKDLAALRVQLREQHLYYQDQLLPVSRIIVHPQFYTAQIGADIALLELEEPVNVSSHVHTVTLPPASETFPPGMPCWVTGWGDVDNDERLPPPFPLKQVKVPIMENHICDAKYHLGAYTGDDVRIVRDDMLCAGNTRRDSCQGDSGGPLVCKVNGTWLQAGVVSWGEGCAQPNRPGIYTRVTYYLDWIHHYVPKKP

Plasminogen, sequence (P00747 97-580 limits assumed): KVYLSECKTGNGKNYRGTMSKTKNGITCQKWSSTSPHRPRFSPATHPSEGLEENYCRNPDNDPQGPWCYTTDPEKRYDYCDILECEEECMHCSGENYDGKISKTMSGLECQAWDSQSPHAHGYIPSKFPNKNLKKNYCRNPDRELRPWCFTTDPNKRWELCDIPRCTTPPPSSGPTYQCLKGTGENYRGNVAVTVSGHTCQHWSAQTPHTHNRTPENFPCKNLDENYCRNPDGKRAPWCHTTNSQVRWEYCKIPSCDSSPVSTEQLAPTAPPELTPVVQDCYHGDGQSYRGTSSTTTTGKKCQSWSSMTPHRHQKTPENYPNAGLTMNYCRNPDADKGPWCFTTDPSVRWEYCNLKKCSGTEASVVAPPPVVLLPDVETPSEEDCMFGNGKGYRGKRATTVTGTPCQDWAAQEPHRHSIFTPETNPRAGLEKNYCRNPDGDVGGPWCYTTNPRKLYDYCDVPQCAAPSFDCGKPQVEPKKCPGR
Plasminogen, sequence (P00747 581-810 limits assumed): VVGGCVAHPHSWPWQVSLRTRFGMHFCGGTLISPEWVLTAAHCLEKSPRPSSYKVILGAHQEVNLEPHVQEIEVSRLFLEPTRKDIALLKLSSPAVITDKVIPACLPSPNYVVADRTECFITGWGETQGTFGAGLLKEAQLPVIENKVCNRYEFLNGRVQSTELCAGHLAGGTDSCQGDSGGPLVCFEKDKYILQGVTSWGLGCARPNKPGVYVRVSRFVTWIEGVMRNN

Row | Structure (SMILES) | Ki app (Trypsin) | Ki (Plasminogen) | Ki (Prothrombin) | Ki (Tryptase beta-1)
1 | NCCCC[C@@H](NC(=O)[C@@H]1CCCN1C(=O)CCOCCOCCOCCOCCNC(=O)CCCC[C@@H]1SC[C@@H]2NC(=O)N[C@@H]21)P(=O)(Oc1ccccc1)Oc1ccccc1 | 0.57 µM | 2.9 µM | 1.07 µM | 6.2 µM
2 | NCCCC[C@@H](NC(=O)[C@H](CC(N)=O)NC(=O)CCOCCOCCOCCOCCNC(=O)CCCC[C@@H]1SC[C@@H]2NC(=O)N[C@@H]21)P(=O)(Oc1ccccc1)Oc1ccccc1 | 57.3 µM | 4.03 µM | > 100 µM | 2.5 µM
